US20220409696A1, “Heparin-Associated Polypeptides and Uses Thereof” (Juvena Therapeutics, Inc., priority 2021, published 2022)

Tests used:
human myoblast cells [1] = assay: Human myoblast differentiation (% eMyHC area), IGF2 and/or sodium butyrate; type: cell-based
Experimental: Human myoblast cells were treated with either PBS (vehicle), IGF2 (15 ng/mL), sodium butyrate, or IGF2 and sodium butyrate. Fresh media was added every 24 hours. After 96 hours, cells were pulsed for 2-5 hours with EdU (30 uM), ethanol fixed, stained with Hoescht 3342, immunostained for proliferation—as measured by the percent of cells staining positive for EdU (% EdU)-, and immunostained for differentiation—as measured by the increase in cellular area staining positive for embryonic myosin heavy chain (% eMyHC) relative to the negative controls, which received media and vehicle only. The total area of eMyHc positive cells was analyzed, and treated cells were compared to cells treated with the vehicle alone. […] Significance was determined by a p-value less than 0.05 by the one-way ANOVA Tukey Honest Significant Difference test.
FIG. 3C Bar graph quantitation of % Area eMyHC+ human myoblast in response to indicated treatment compared to IGF2 (15 ng/mL). Myoblast were cultured 96 h in the presence of IGF2 at indicated dose. Fresh media and IGF2 was added every 24 h.
Human myoblast cells were treated with either PBS (vehicle), IGF2 (15 ng/mL), sodium butyrate, or IGF2 and sodium butyrate. Fresh media was added every 24 hours. After 48 hours, cells were pulsed for 2-5 hours with EdU (30 uM), ethanol fixed, stained with Hoescht 3342, immunostained for proliferation […] as measured by the percent of cells staining positive for EdU (% EdU)-, and immunostained for differentiation—as measured by the increase in cellular area staining positive for embryonic myosin heavy chain (% eMyHC) relative to the negative controls, which received media and vehicle only.
Significance was determined by a p-value less than 0.05 by the one-way ANOVA Tukey Honest Significant Difference test.

Mouse myoblasts = assay: Mouse myoblast fusion index with sodium butyrate; type: cell-based; conditions: 48 h
Experimental: Mouse myoblasts were treated with PBS or sodium butyrate at concentrations 0.1 nM, 1 nM, and 10 nM. Myoblasts were cultured for 48 hours, with fresh media added every 24 hours. Cells were pulsed for 2-5 hours with EdU (30 uM), ethanol fixed, stained with Hoescht 3342, immunostained for proliferation—as measured by the percent of cells staining positive for EdU (% EdU)-, and immunostained for differentiation—as measured by the increase in cellular area staining positive for embryonic myosin heavy chain (% eMyHC) relative to the negative controls, which received media and vehicle only. […] Significance was determined by a p-value less than 0.05 by the one-way ANOVA Tukey Honest Significant Difference test.
FIG. 3A: Bar graph of fusion index in response to sodium butyrate (NaBut) compared to vehicle. Myoblast were cultured 48 h in the presence of NaBut at indicated dose. Fresh media and NaBut were added every 24 h. Mean∓S.D. Table with quantitation of fusion index and p-values also shown. (*p<0.05 by Student's Two-tailed T-test, n=3−5)

DM1 human myoblast = assay: Gene expression fold change in DM1 human myoblast; type: cell-based; conditions: 48 h; BMP7 50 ng/mL, Butyrate 100 nM, IGF2 200 ng/mL
Experimental: Myoblasts were cultured 48 h in the presence of factors (BMP7 50 ng/mL, Butyrate 100 nM, IGF2 200 ng/mL).
Myoblasts were cultured 96 h in the presence of factors (IGF2 200 ng/mL). […] Myoblasts were cultured 48 h in the presence of factors (IGF2 200 ng/mL).
RNA was isolated from each well (RNeasy Mini Kit, Qiagen) and cDNA was obtained by reverse-transcription (High Capacity Reverse Transcription Kit, Thermo Fisher Scientific). Real-time quantitative PCR was performed using QuantStudio3 (Thermo Fisher).
IGF2 was tested individually for its ability to promote proliferation and/or fusion of human muscle progenitor cells from an individual with myotonic dystrophy type 1 (hMD)—a muscular dystrophy caused by mutations in the DMPK1 gene. The effect of IGF2 on myogenic activity was assayed in biological triplicate across a range of concentrations centered around expected physiological levels by adding each factor to hMD myoblasts for 72 hours with daily media changes (DMEM+2% horse serum) and a second pulse of factors at the first media change. After 72 or 96 hours, cells were pulsed for 2-5 hours with EdU (30 uM), ethanol fixed, stained with Hoescht 3342, immunostained for proliferation—as measured by the percent of cells staining positive for EdU (% EdU)-, and immunostained for differentiation—as measured by the increase in cellular area staining positive for embryonic myosin heavy chain (% eMyHC) relative to the negative controls, which received media and vehicle only. Wells were imaged on a Keyence BZ-100 at 4×, the images quantified in Cell Profiler, and the statistics were computed in R. Additionally, RNA was extracted from myoblast and select transcript abundances quantified by qPCR.

human myoblast cells [2] = assay: Differentiation of human myoblast cells, MyHC immunostaining; type: cell-based; conditions: for % MyHC: 96 hours with daily media change; for percentage area of MyHC compared with vehicle control: 96 hours, One-Way ANOVA Tukey
Experimental: (§1) FIG. 1A: The suspension CHO cells were transiently transfected with the IGF2-hFcm encoding plasmid. IGF2-hFcm was affinity-purified by Protein A membrane column. The purified IGF2-hFcm was added into the culture of human myoblast cells for 96 hours. Myosin heavy chain (MyHC) was immunostained and imaged by a fluorescence microscope.
as §1, with “1B:” for “1A:”, “IGF2-LhFc4” for “IGF2-hFcm”, “hours with daily media change.” for “hours.”
as §1, with “2A:” for “1A:”, “HSA-L-IGF2R61A” for “IGF2-hFcm”, “hours with daily media change.” for “hours.”
Suspension CHO cells were transiently transfected with the IGF2-hFcm encoding plasmid. After four days, the culture supernatants were collected and IGF2-hFcm was affinity-purified by Protein A membrane column. The purified IGF2-hFcm was added into the culture of human myoblast cells. Myosin heavy chain (MyHC) was immunostained and imaged by a fluorescent microscope. After quantification of the stained MyHC, the percentage area of MyHC was calculated as the percent of pixels within the field that are illuminated above background in the stained channel. […] Significance was determined by a p-value less than 0.05 by the one-way ANOVA Tukey Honest Significant Difference test.

[3] = Backbone cleavage on expression from CHO cells (reducing SDS-PAGE, Western blot)
Experimental: The amino acid backbone of IGF2 is cleaved when expressed from Chinese Hamster Ovary (CHO) cells (FIG. 13A) as visualized on a reducing SDS-PAGE and Western blot (FIG. 13B). The CHO cells were grown in a 37° C. incubator with a humidified atmosphere of 8% CO2 on an orbital shaker platform with a shaking speed 125 rpm to reach 4E6 cells/mL, followed by transferring the calculated volume of cells to fresh, pre-warmed ExpiCHO™ Expression Medium in a shake flask. Incubated flasks in a 37° C. incubator with a humidified atmosphere of 8% CO2 shook on an orbital shaker platform until cultures reached a density of 4×106-6×10^6 viable cells/mL. After mixing each plasmid with 100 ul SFM in a microtube; ExpiFectamine (8 ul×10.5=84 ul) with OptiPro medium (92 ul×10.5=966 ul) in a microtube; adding 100 ul into the plasmid tube and mix by pipetting; After 5 min, add 200 ul into each well and swirl to mix. mix enhancer (15×10.2=153 ul) with feed (600×10.2=6.12 ml), add 615 ul into each well. Culture supernatant collected at intervals was spun down at low speed and high speed, then frozen at −80 deg. Aliquots were analyzed for protein concentration by nanodrop, and then an equivalent amount loaded onto 4-12% SDS-PAGE gels for molecular weight distribution analysis. […]

[4] = tested on: healthy human muscle precursors from person; assay: In vitro myogenesis assay, healthy human muscle precursors; type: cell-based
Experimental: (§2) Human muscle progenitor cells (early passage myoblasts) were cultured and expanded in growth medium: Ham's F-10 (Gibco), 20% Bovine Growth Serum (Hyclone), 5 ng/mL FGF2 and 1% penicillin-streptomycin on Matrigel coated plates (1:300 matrigel: PBS), at 37° C. and 5% CO2. For experimental conditions, cells were plated at 40,000 cells/well on Matrigel coated 8-well chamber slides in 250-500 μL medium per well (1:100 matrigel: PBS) in human fusion medium: DMEM (Gibco)+2% horse serum (Hyclone). One hour after plating, human myoblasts were treated with 50% respective media: […] were cultured for 24 hours in the above conditions, at 37° C. in 10% CO2 incubator. BrdU (300 μM) in DMSO was added for 2 hours prior to fixation with cold 70% ethanol and stored at 4° C. until staining.
(§3) Following permeabilization in PBS+0.25% Triton X-100, antigen retrieval was performed. Primary staining was performed with primary antibodies including: a species-specific monoclonal antibody for mouse anti-embryonic Myosin Heavy Chain (eMyHC, hybridoma clone 1.652, Developmental Studies Hybridoma Bank) and Rat-anti-BrdU (Abcam Inc. ab6326). […]

rhIGFBP3 = rhIGFBP3 (Homo sapiens, UniProt P17936); assay: Interaction with rhIGFBP3 by size exclusion chromatography (HPLC); type: binding; conditions: 1:1 stoichiometric mixture
Description: In physiological conditions IGF2 will bind IGF binding proteins (IGFBPs). The purpose of this study was to determine if mutant sequences of IGF2 interact with IGFBPs. Retention time across a size exclusions chromatography column is proportional to the size of the molecule. Thus molecular interactions can be ascertained by a corresponding change in retention time on a size exclusions chromatography column.

[5] = tested on: human DM1 muscle precursors from person; assay: In vitro myogenesis assay, human DM1 muscle precursors; type: cell-based; conditions: equimolar concentrations across a range of concentrations
Experimental: as §2, §3

[6] = Pharmacokinetics after intravenous injection in mice; type: in vivo
Experimental: Murine pharmacokinetics (PK) represents the absorption, distribution, metabolism, and elimination of drugs from the body. The pharmacokinetic profile of the therapeutic polypeptides were determined in mice (10-12 weeks old). Mice were fed ad libitum and housed under controlled conditions of lighting (12-hour light/12-hour dark) and temperature (22-24° C.). Mice were allowed to acclimate for 3 days prior to the initiation of the experiment. Intravenous (IV) injection in 10-12 weeks old mice. Engineered mitogenic polypeptides concentrations in the samples were measured by ELISA. Various pharmacokinetics will be calculated as well as the absorption/elimination dynamics following different routes of administration.

Sequence of rhIGFBP3 (P17936 28-291): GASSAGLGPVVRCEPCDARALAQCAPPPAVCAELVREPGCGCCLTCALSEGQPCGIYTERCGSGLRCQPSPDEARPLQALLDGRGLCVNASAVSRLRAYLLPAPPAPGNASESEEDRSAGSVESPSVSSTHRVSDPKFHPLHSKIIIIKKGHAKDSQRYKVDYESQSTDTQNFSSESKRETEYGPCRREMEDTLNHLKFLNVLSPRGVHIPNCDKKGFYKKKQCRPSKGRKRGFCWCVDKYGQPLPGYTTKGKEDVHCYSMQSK

Compound: CCCC(=O)[O-].[Na+] [NaBut, sodium butyrate]
- % eMyHC (human myoblast cells [1]; NaBut 1 nM, 96 h (FIG. 3B)): 2.321%
- % eMyHC (human myoblast cells [1]; NaBut 1 nM, after 48 hours (FIG. 4A)): 2.321%
- % eMyHC (human myoblast cells [1]; NaBut 10 nM, 96 h (FIG. 3B)): 6.199%
- % eMyHC (human myoblast cells [1]; NaBut 10 nM, after 48 hours (FIG. 4A)): 6.199%
- % eMyHC (human myoblast cells [1]; NaBut 100 nM, 96 h (FIG. 3B)): 8.341%
- % eMyHC (human myoblast cells [1]; NaBut 100 nM, after 48 hours (FIG. 4A)): 8.341%
- Fusion Index (nuclei/myotube) (Mouse myoblasts; NaBut 0.1 nM): 8.44 nuclei/myotube
- Fusion Index (nuclei/myotube) (Mouse myoblasts; NaBut 1 nM): 31.60 nuclei/myotube
- Fusion Index (nuclei/myotube) (Mouse myoblasts; NaBut 1 nM, listed as sodium butyrate): increased rates of fusion
- Fusion Index (nuclei/myotube) (Mouse myoblasts; NaBut 10 nM): 14.00 nuclei/myotube
- MYF5 myogenic gene expression fold change compared to FM (vehicle) (DM1 human myoblast): 1.128
- MYODI myogenic gene expression fold change compared to FM (vehicle) (DM1 human myoblast): 1.095
- MYOG myogenic gene expression fold change compared to FM (vehicle) (DM1 human myoblast): 1.020

Compound: HSA-IGF2: His tagged HSA fusion IGF2 with a long linker, SEQ ID NO 33
- % MyHC (human myoblast cells [2]; FIG. 2A, Example 4): 7.079%
- cleavage of the amino acid backbone when expressed from CHO cells [3]: cleaved

Compound: HSA-IGF2R61A: His tagged HSA fusion IGF2 R61A mutant with a long linker, SEQ ID NO: 34
- percentage area of MyHC compared with vehicle control (human myoblast cells [2]): significantly higher
- % MyHC (human myoblast cells [2]; FIG. 2A, Example 4): 6.914%
- myogenic activity relative to IGF2 ([4]; equimolar concentrations across a range of concentrations): equal activity
- myogenic activity relative to HSA-IGF2 ([4]; equimolar concentrations, before or after size exclusion purification via HPLC): equal or increased activity
- interaction with rhIGFBP3 (mass shift in size exclusion chromatography) (rhIGFBP3): preserved affinity
- myogenic activity relative to IGF2 [5]: equal activity
- serum half-life compared to the natural sequence of IGF2 ([6]; mice): significantly improved
- Half-life ([6]; mice 10-12 weeks old, dose 10 mg/kg (HSA-IGF2R61A), 600 ug/kg (IGF2), Non-Compartment Analysis): 20.81 h

Compound: IGF2-LhFc4: Human IGF2-linker3-hFc4 (human IgG4 Fc with S228P), SEQ ID NO 38
- percentage area of MyHC compared with vehicle control (human myoblast cells [2]): significantly higher
- % MyHC (human myoblast cells [2]; FIG. 1B, Example 3): 6.237%

Compound: IGF2-hFc4: Human IGF2-hFc4, SEQ ID NO 39
- % MyHC (human myoblast cells [2]; FIG. 1B, Example 3): 6.901%

Compound: hFc4L-IGF2: hFc4-linker3-human IGF2, SEQ ID NO 40
- % MyHC (human myoblast cells [2]; FIG. 1B, Example 3): 5.820%
